The assay concerns mice with AKI induced by cisplatin. The experiment in a line: Mouse acute kidney injury induced by cisplatin. In kind it is in vivo. An excerpt: Cisplatin-induced kidney injury is a classical and standard animal model that simulates the acute kidney injury induced by drugs that cause nephrotoxicity. With the mouse cisplatin model, we administered the alginate oligosaccharides with different uniform degrees of polymerization and a mixture thereof, and then compared with a blank group and a non-administrated model group to investigate the therapeutic effects of the individual alginate oligosaccharides with a uniform degree of polymerization.
30 male C57BL/J6 mice of 22-28 grams were selected. Before treatment, the 24-hour urine output was collected and measured without abnormalities. The mice to be modeled were randomly divided into the following groups: a control group, a model group, a model+low-dose administration group (AOS3 at 0.05 g/kg/day), a model+medium-dose administration group (AOS3 at 0.1 g/kg/day), and a model+high-dose administration group (AOS3 at 0.2 g/kg/day), with 6 mice in each group. The alginate trisaccharides was intragastrically administered, and the model group and the control group were all fed by gavage with the same volume of normal saline. Cisplatin was used to induce the drug toxin-associated acute kidney injury. During modeling, each model group was intraperitoneally injected with cisplatin at 20 mg/kg, and the control group was intraperitoneally injected with the same volume of normal saline. Immediately after modeling, the mice were put back into the mouse metabolic cages for observation, during which the weight, food intake, water intake and urine output of the mice were measured (see FIG. 37 for the results). The mice were sacrificed 72 hours later for sampling, and urine was collected. […] Then, the serum creatinine in the mice was determined by using the creatinine assay kit from Nanjing Jiancheng, with the results shown in FIG. 36. During sampling, the kidneys on both sides were isolated, the cortex and inner medulla of each kidney were isolated, and the cortex was stored in trizol. When in use, mRNAs in the cortex were extracted using the trizol method, and the mRNA expressions of AKI biomarkers (KIM-1 and NGAL, with the results shown in FIG. 38) were detected by the Qpcr method. A tissue lysis buffer was added to homogenize the kidneys by ultrasound, the total protein was then extracted, and the inflammatory factors (p-NFκB/NFκB and IL-1β) in the renal cortex tissues were detected by western blotting. The experimental data were statistically analyzed by one-way ANOVA.

[1] abbreviates: 0.1 g/kg/day, vs cisplatin model group.

Take “alginate disaccharide sodium salt [AOS2]”: under setting [1], the “expressions of inflammatory factors” value is given as “decreased significantly”; the “level of serum creatinine” value is listed as “decreased significantly”; the “levels of kidney injury factors (KIM-1 and NGAL)” value (shortened to “levels of kidney injury factors”) is on record as “decreased significantly”.
With “alginate tetrasaccharide sodium salt [AOS4]”, under setting [1], the “expressions of inflammatory factors” value was “decreased significantly”; the “level of serum creatinine” value was “decreased significantly”; the “levels of kidney injury factors” value is given as “decreased significantly”.
Consider “alginate trisaccharide sodium salt [AOS3]”, for which, under setting [1], the “expressions of inflammatory factors” value is listed as “decreased significantly”; the “level of serum creatinine” value was “decreased significantly”; the “levels of kidney injury factors” value was “decreased significantly”. Also, under “C57BL/J6 mice, cisplatin 20 mg/kg i.p., intragastric 0.05, 0.1, 0.2 g/kg/day, 72 h”, the “level of serum creatinine” value was “decreased significantly and could basically return to a normal level”. Further, the “mRNA levels of Kim-1 and NGAL in kidney tissues” value (renal cortex, Qpcr, vs cisplatin model group) was “significantly reduced”. For the same substance, the “protein expressions of renal inflammatory factors (TLR4, p-NFκB/NFκB, IL-1β)” value (renal cortex, western blotting, vs cisplatin model group) was “significantly reduced the production of the inflammatory factors”. Moreover, for the setting “three doses 0.05, 0.1, 0.2 g/kg/day, 24 h to 72 h, dose dependent”, the urine output result was “first somewhat decreased and then became normal”.
